Experimental data from patent publication US20260022142A1, “MACROCYCLIC IMMUNOMODULATORS” (Bristol-Myers Squibb Company, priority 2022, published 2026).
Bridge positions count the residues as written; N and C are the ends. Square brackets hold non-standard residues; d marks the D form. Peptide text beside a SMILES is read from it. * marks the point of attachment. Phe(4-COOH) = N[C@@H](Cc1ccc(C(=O)O)cc1)C(=O)O; Bip = N[C@@H](Cc1ccc(-c2ccccc2)cc1)C(=O)O; Phe(3-Me) = Cc1cccc(C[C@H](N)C(=O)O)c1; Ala(cPr) = N[C@@H](CC1CC1)C(=O)O; 4Pal = N[C@@H](Cc1ccncc1)C(=O)O; Cha = N[C@@H](CC1CCCCC1)C(=O)O; Cit = NC(=O)NCCC[C@H](N)C(=O)O; Cba = N[C@@H](CC1CCC1)C(=O)O; Carboxymethyl = O=C(O)C*; Orn = NCCC[C@H](N)C(=O)O; Aun = NCCCCCCCCCCC(=O)O; Dab = NCC[C@H](N)C(=O)O; Dap = NC[C@H](N)C(=O)O; Ac3c = NC1(C(=O)O)CC1

Molecular target: T1, PD-1/PD-L1 interaction (PE-labeled human PD-L1-Ig binding to Jurkat cell line over-expressing human PD-1) (Homo sapiens, UniProt Q15116)
T1 construct: expressed in transfected cells; host or cells: Jurkat
T1 sequence (Q15116 25-288): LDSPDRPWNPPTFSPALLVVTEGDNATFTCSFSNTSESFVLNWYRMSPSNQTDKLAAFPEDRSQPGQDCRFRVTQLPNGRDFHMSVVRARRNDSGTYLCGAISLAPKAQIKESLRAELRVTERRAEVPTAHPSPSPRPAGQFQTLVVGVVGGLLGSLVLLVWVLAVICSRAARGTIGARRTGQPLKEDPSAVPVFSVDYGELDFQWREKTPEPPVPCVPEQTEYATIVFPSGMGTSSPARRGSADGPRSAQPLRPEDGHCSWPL
Experiment: Jurkat-PD-1 Cell Binding High-Content Screening Assay (CBA)
Type: cell-based
Settings: Jurkat cell line over-expressing human PD-1; PE-labeled PD-L1-Ig 20 nM final; read-out: Jurkat hPD1-PDL1 IC50
In short: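 Jurkat-hPD-1 cells, DMEM/10% FCS; cpd 2 h 37° C; PE-PD-L1-Ig 20 nM final, 1 h; 4% PFA fix + Hoechst 33342, 3× dPBS wash; high-content imaging read-out.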

| SMILES | IC50 |
| --- | --- |
| Cc1cccc(C[C@@H]2NC(=O)[C@H](CC(=O)O)NC(=O)[C@H](Cc3ccc(OCC(=O)O)cc3)NC(=O)[C@H](CCCNC(=N)N)NC(=O)CSC[C@@H](C(=O)NC3(C(=O)NCCCCCCCCCCC(=O)O)CC3)NC(=O)[C@H]([C@@H](C)O)NC(=O)[C@H](C(C)C)NC(=O)[C@H](CC3CCCCC3)NC(=O)[C@H](CCN)NC(=O)[C@@H](CC(C)C)NC(=O)[C@H](CCN)NC(=O)[C@H](Cc3ccc(OCC(=O)O)cc3)NC(=O)[C@H](Cc3ccc(-c4ccccc4)cc3)NC(=O)[C@H](Cc3ccc(OCC(=O)O)cc3)NC2=O)c1 [Compound 2161] ({CH2CO}-RY(Carboxymethyl)D[Phe(3-Me)]Y(Carboxymethyl)[Bip]Y(Carboxymethyl)[Dab][dL][Dab][Cha]VTC[Ac3c][Aun]-OH; thioether N-14) | 12.9 nM |
| Cc1cccc(C[C@@H]2NC(=O)[C@H](CC(=O)O)NC(=O)[C@H](Cc3ccc(OCC(=O)O)cc3)NC(=O)[C@H](CCCNC(=N)N)NC(=O)CSC[C@@H](C(=O)NC3(C(=O)NCCCCCCCCCCC(=O)O)CC3)NC(=O)[C@H]([C@@H](C)O)NC(=O)[C@H](C(C)C)NC(=O)[C@H](CC3CCCCC3)NC(=O)[C@H](CCN)NC(=O)[C@@H](CC(C)C)NC(=O)[C@H](CCCNC(N)=O)NC(=O)[C@H](Cc3ccc(OCC(=O)O)cc3)NC(=O)[C@H](Cc3ccc(-c4ccccc4)cc3)NC(=O)[C@H](Cc3ccc(OCC(=O)O)cc3)NC2=O)c1 [Compound 2162] ({CH2CO}-RY(Carboxymethyl)D[Phe(3-Me)]Y(Carboxymethyl)[Bip]Y(Carboxymethyl)[Cit][dL][Dab][Cha]VTC[Ac3c][Aun]-OH; thioether N-14) | 12.9 nM |
| Cc1cccc(C[C@@H]2NC(=O)[C@H](CC(=O)O)NC(=O)[C@H](Cc3ccc(OCC(=O)O)cc3)NC(=O)[C@H](CCCNC(=N)N)NC(=O)CSC[C@@H](C(=O)NC3(C(=O)NCCCCCCCCCCC(=O)O)CC3)NC(=O)[C@H]([C@@H](C)O)NC(=O)[C@H](C(C)C)NC(=O)[C@H](CC3CC3)NC(=O)[C@H](CCN)NC(=O)[C@@H](CC(C)C)NC(=O)[C@H](CCCN)NC(=O)[C@H](Cc3ccc(OCC(=O)O)cc3)NC(=O)[C@H](Cc3ccc(-c4ccccc4)cc3)NC(=O)[C@H](Cc3ccc(OCC(=O)O)cc3)NC2=O)c1 [Compound 2163] ({CH2CO}-RY(Carboxymethyl)D[Phe(3-Me)]Y(Carboxymethyl)[Bip]Y(Carboxymethyl)[Orn][dL][Dab][Ala(cPr)]VTC[Ac3c][Aun]-OH; thioether N-14) | 93 nM |
| Cc1cccc(C[C@@H]2NC(=O)[C@H](CC(=O)O)NC(=O)[C@H](Cc3ccc(OCC(=O)O)cc3)NC(=O)[C@H](CCCNC(=N)N)NC(=O)CSC[C@@H](C(=O)NC3(C(=O)NCCCCCCCCCCC(=O)O)CC3)NC(=O)[C@H]([C@@H](C)O)NC(=O)[C@H](C(C)C)NC(=O)[C@H](CC3CCC3)NC(=O)[C@H](CCN)NC(=O)[C@@H](CC(C)C)NC(=O)[C@H](CCCN)NC(=O)[C@H](Cc3ccc(OCC(=O)O)cc3)NC(=O)[C@H](Cc3ccc(-c4ccccc4)cc3)NC(=O)[C@H](Cc3ccc(OCC(=O)O)cc3)NC2=O)c1 [Compound 2164] ({CH2CO}-RY(Carboxymethyl)D[Phe(3-Me)]Y(Carboxymethyl)[Bip]Y(Carboxymethyl)[Orn][dL][Dab][Cba]VTC[Ac3c][Aun]-OH; thioether N-14) | 33.3 nM |
| Cc1cccc(C[C@@H]2NC(=O)[C@H](CC(=O)O)NC(=O)[C@H](Cc3ccc(C(=O)O)cc3)NC(=O)[C@H](CN)NC(=O)CSC[C@@H](C(=O)N[C@@H](CCN)C(=O)NCCCCCCCCCCC(=O)O)NC(=O)[C@H]([C@@H](C)O)NC(=O)[C@H](C(C)C)NC(=O)[C@H](CC3CCCCC3)NC(=O)[C@H](CCN)NC(=O)[C@@H](CC(C)C)NC(=O)[C@H](CCCN)NC(=O)[C@H](Cc3ccc(OCC(=O)O)cc3)NC(=O)[C@H](Cc3ccc(-c4ccccc4)cc3)NC(=O)[C@H](Cc3ccc(OCC(=O)O)cc3)NC2=O)c1 [Compound 2165] ({CH2CO}-[Dap][Phe(4-COOH)]D[Phe(3-Me)]Y(Carboxymethyl)[Bip]Y(Carboxymethyl)[Orn][dL][Dab][Cha]VTC[Dab][Aun]-OH; thioether N-14) | 21.8 nM |
| Cc1cccc(C[C@@H]2NC(=O)[C@H](CC(=O)O)NC(=O)[C@H](Cc3ccc(C(=O)O)cc3)NC(=O)[C@H](CCCNC(=N)N)NC(=O)CSC[C@@H](C(=O)N[C@@H](CCN)C(=O)NCCCCCCCCCCC(=O)O)NC(=O)[C@H]([C@@H](C)O)NC(=O)[C@H](C(C)C)NC(=O)[C@H](CC3CCCCC3)NC(=O)[C@H](CCN)NC(=O)[C@@H](CC(C)C)NC(=O)[C@H](CCCN)NC(=O)[C@H](Cc3ccc(OCC(=O)O)cc3)NC(=O)[C@H](Cc3ccc(-c4ccccc4)cc3)NC(=O)[C@H](Cc3ccc(OCC(=O)O)cc3)NC2=O)c1 [Compound 2166] ({CH2CO}-R[Phe(4-COOH)]D[Phe(3-Me)]Y(Carboxymethyl)[Bip]Y(Carboxymethyl)[Orn][dL][Dab][Cha]VTC[Dab][Aun]-OH; thioether N-14) | 11.8 nM |
| Cc1cccc(C[C@@H]2NC(=O)[C@H](CC(=O)O)NC(=O)[C@H](Cc3ccc(C(=O)O)cc3)NC(=O)[C@H](Cc3ccncc3)NC(=O)CSC[C@@H](C(=O)NC3(C(=O)NCCCCCCCCCCC(=O)O)CC3)NC(=O)[C@H]([C@@H](C)O)NC(=O)[C@H](C(C)C)NC(=O)[C@H](CC3CCCCC3)NC(=O)[C@H](CCN)NC(=O)[C@@H](CC(C)C)NC(=O)[C@H](CCCN)NC(=O)[C@H](Cc3ccc(OCC(=O)O)cc3)NC(=O)[C@H](Cc3ccc(-c4ccccc4)cc3)NC(=O)[C@H](Cc3ccc(OCC(=O)O)cc3)NC2=O)c1 [Compound 2167] ({CH2CO}-[4Pal][Phe(4-COOH)]D[Phe(3-Me)]Y(Carboxymethyl)[Bip]Y(Carboxymethyl)[Orn][dL][Dab][Cha]VTC[Ac3c][Aun]-OH; thioether N-14) | 9.4 nM |
| Cc1cccc(C[C@@H]2NC(=O)[C@H](CC(=O)O)NC(=O)[C@H](Cc3ccc(C(=O)O)cc3)NC(=O)[C@H](Cc3ccncc3)NC(=O)CSC[C@@H](C(=O)NC3(C(=O)NCCCCCCCCCCC(=O)O)CC3)NC(=O)[C@H]([C@@H](C)O)NC(=O)[C@H](C(C)C)NC(=O)[C@H](CC(C)C)NC(=O)[C@H](CCN)NC(=O)[C@@H](CC(C)C)NC(=O)[C@H](CCCN)NC(=O)[C@H](Cc3ccc(OCC(=O)O)cc3)NC(=O)[C@H](Cc3ccc(-c4ccccc4)cc3)NC(=O)[C@H](Cc3ccc(OCC(=O)O)cc3)NC2=O)c1 [Compound 2168] ({CH2CO}-[4Pal][Phe(4-COOH)]D[Phe(3-Me)]Y(Carboxymethyl)[Bip]Y(Carboxymethyl)[Orn][dL][Dab]LVTC[Ac3c][Aun]-OH; thioether N-14) | 26.7 nM |
| Cc1cccc(C[C@@H]2NC(=O)[C@H](CC(=O)O)NC(=O)[C@H](Cc3ccc(OCC(=O)O)cc3)NC(=O)[C@H](CCCNC(=N)N)NC(=O)CSC[C@@H](C(=O)N[C@@H](CCN)C(=O)NCCCCCCCCCCC(=O)O)NC(=O)[C@H]([C@@H](C)O)NC(=O)[C@H](C(C)C)NC(=O)[C@H](CC3CC3)NC(=O)[C@H](CCN)NC(=O)[C@@H](CC(C)C)NC(=O)[C@H](CCCN)NC(=O)[C@H](Cc3ccc(OCC(=O)O)cc3)NC(=O)[C@H](Cc3ccc(-c4ccccc4)cc3)NC(=O)[C@H](Cc3ccc(OCC(=O)O)cc3)NC2=O)c1 [Compound 2169] ({CH2CO}-RY(Carboxymethyl)D[Phe(3-Me)]Y(Carboxymethyl)[Bip]Y(Carboxymethyl)[Orn][dL][Dab][Ala(cPr)]VTC[Dab][Aun]-OH; thioether N-14) | 14.3 nM |
